Assay results as given in ChEMBL document CHEMBL3112401, “Activity of diimidazoline amides against African trypanosomiasis” (Bioorg Med Chem Lett, 2014).
Active and inactive are the calls of the source. No cut-off for these calls is given here.

Legend:
[1] = test system: Trypanosoma brucei rhodesiense; test: Antitrypanosomal activity against Trypanosoma brucei rhodesiense STIB900 assessed as parasite growth inhibition after 70 hrs by Alamar blue assay; format: functional, organism-based; conditions: STIB900, 70 h
[2] = test system: Trypanosoma brucei rhodesiense; test: Antitrypanosomal activity against Trypanosoma brucei rhodesiense infected in mouse assessed as cure rate at 40 mg/kg, ip administered on day 1 to 3 relative to control; format: functional; conditions: route intraperitoneal
[3] = test system: Trypanosoma brucei rhodesiense; test: Antitrypanosomal activity against Trypanosoma brucei rhodesiense infected in mouse assessed as mean survival days at 50 mg/kg, ip administered on day 3 to 6 (reference value: 6 to 10 days); format: functional; conditions: route intraperitoneal
L6 = test: Cytotoxicity against rat L6 cells assessed as cell viability after 70 hrs by MTT assay; format: cell-based; conditions: L6, 70 h
Mus musculus = test: Toxicity in mouse infected with Trypanosoma brucei rhodesiense at 50 mg/kg, ip measured after day 3; format: organism-based; set-up: dose 50 mg/kg, route intraperitoneal; conditions: in vivo
[4] = test system: Trypanosoma brucei rhodesiense; test: Antitrypanosomal activity against Trypanosoma brucei rhodesiense infected in mouse assessed as survival more than 60 days without parasitemia relapse at 50 mg/kg, ip administered on day 3 to 6; format: functional, organism-based; set-up: dose 50 mg/kg

| SMILES | IC50 [1] | Activity [2] | MSD [3] | IC50 (L6) | Activity (Mus musculus) | Activity [4] |
| --- | --- | --- | --- | --- | --- | --- |
| CS(=O)(=O)O.O=C(Nc1ccc(C2=NCCN2)cc1)c1ccc(C(=O)Nc2ccc(C3=NCCN3)cc2)cc1 | 0.0047 µM | 100% | 39 days | 110 µM |  |  |
| CS(=O)(=O)O.O=C(Nc1ccc(C2=NCCN2)cc1)c1ccc(C2=NCCN2)cc1 | 0.086 µM | 100% | 34 days | 68 µM | Non-toxic |  |
| O=C(NCc1ccc(C2=NCCN2)cc1)c1ccc(C(=O)NCc2ccc(C3=NCCN3)cc2)cc1 | 9.5 µM |  |  | 92 µM |  |  |
| O=C(NCc1ccccc1)c1ccc(-c2cc3ccc(C4=NCCN4)cc3[nH]2)cc1 | 2.2 µM |  |  | 110 µM |  |  |
| N=C(N)c1ccc(OCCCCCOc2ccc(C(=N)N)cc2)cc1 [PENTAMIDINE ISETHIONATE] | 0.0015 µM |  |  | 5.1 µM |  |  |
| CS(=O)(=O)O.O=C(NCc1ccc(C2=NCCN2)cc1)c1ccc(-c2cc3ccc(C4=NCCN4)cc3[nH]2)cc1 | 0.0015 µM | 100% |  | 41 µM | Toxic | inactive |
| O=C(Nc1ccc(C2=NCCN2)cc1)c1ccc(-c2cc3ccc(C4=NCCN4)cc3[nH]2)cc1 | 0.0022 µM | 100% |  | 19 µM |  |  |
| O=C(NCc1ccncc1)c1ccc(-c2cc3ccc(C4=NCCN4)cc3[nH]2)cc1 | 0.023 µM | 100% |  | 89 µM |  |  |
| CS(=O)(=O)O.O=C(Nc1ccc(C2=NCCN2)cc1)c1ccc(NC(=O)c2ccc(C3=NCCN3)cc2)cc1 | 0.011 µM | 100% | >60 days | 50 µM | Non-toxic | Active |
| CS(=O)(=O)O.O=C(Nc1cccc(C(=O)Nc2ccc(C3=NCCN3)cc2)c1)c1ccc(C2=NCCN2)cc1 | 0.12 µM | 100% | >60 days | 99 µM | Non-toxic | Active |
| Nc1nc(N)nc(Nc2ccc([As]3SCC(CO)S3)cc2)n1 (stereo unspecified) [MELARSOPROL] | 0.0038 µM |  |  | 19 µM |  |  |
| O=C(N[C@H]1CC[C@H](NC(=O)c2ccc(C3=NCCN3)cc2)CC1)c1ccc(C2=NCCN2)cc1 | 0.69 µM |  |  | 130 µM |  |  |
| CS(=O)(=O)O.O=C(Nc1ccc(NC(=O)c2ccc(C3=NCCN3)cc2)cc1)c1ccc(C2=NCCN2)cc1 | 0.12 µM | 100% | >60 days | 92 µM | Non-toxic | Active |
| CS(=O)(=O)O.O=C(Nc1ccc(C2=NCCN2)cc1)c1ccc(-c2ccc(C(=O)Nc3ccc(C4=NCCN4)cc3)cc2)cc1 | 0.019 µM | 100% | 11 days | > 150 µM | Non-toxic | inactive |
| O=C(NCc1ccc(C2=NCCN2)cc1)c1cccc(C(=O)NCc2ccc(C3=NCCN3)cc2)c1 | 64 µM |  |  | > 150 µM |  |  |
| CS(=O)(=O)O.O=C(Nc1ccc(C2=NCCN2)cc1)c1cccc(C(=O)Nc2ccc(C3=NCCN3)cc2)c1 | 0.051 µM | 100% | >60 days | 120 µM |  | Active |
